pIC50: −log10 of the molar value.
System: 168753-222-R-J1-PDC complex spheroid viability
Test: Anticancer human tumor 168753-222-R-J1-PDC patient-derived bladder carcinoma cell line growth inhibition [CLK]
Conditions: for pIC50: curve of first compound; for viability, T/C: stronger effect = lower value
Summary of the method: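 Patient-derived tumor cells grown as complex spheroids with HUVEC endothelial cells and mesenchymal stem cells, treated with drug combinations. Concentrations descend in half-log steps from near clinical Cmax, or from 10 microM if Cmax unknown.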

[1] = second compound 0.0316 µM, first compound 0.0316 µM
[2] = second compound 0.0316 µM, first compound 0.1 µM
[3] = second compound 0.0316 µM, first compound 0.316 µM
[4] = second compound 0.0316 µM, first compound 1 µM
[5] = second compound 0.0316 µM, first compound 3.16 µM
[6] = second compound 0.0316 µM, first compound 10 µM
[7] = second compound 0.1 µM, first compound 0.0316 µM
[8] = second compound 0.1 µM, first compound 0.1 µM
[9] = second compound 0.1 µM, first compound 0.316 µM
[10] = second compound 0.1 µM, first compound 1 µM
[11] = second compound 0.1 µM, first compound 3.16 µM
[12] = second compound 0.1 µM, first compound 10 µM
[13] = second compound 0.316 µM, first compound 0.0316 µM
[14] = second compound 0.316 µM, first compound 0.1 µM
[15] = second compound 0.316 µM, first compound 0.316 µM
[16] = second compound 0.316 µM, first compound 1 µM
[17] = second compound 0.316 µM, first compound 3.16 µM
[18] = second compound 0.316 µM, first compound 10 µM
[19] = second compound 1 µM, first compound 0.0316 µM
[20] = second compound 1 µM, first compound 0.1 µM
[21] = second compound 1 µM, first compound 0.316 µM
[22] = second compound 1 µM, first compound 1 µM
[23] = second compound 1 µM, first compound 3.16 µM
[24] = second compound 1 µM, first compound 10 µM
[25] = second compound 3.16 µM, first compound 0.0316 µM
[26] = second compound 3.16 µM, first compound 0.1 µM
[27] = second compound 3.16 µM, first compound 0.316 µM
[28] = second compound 3.16 µM, first compound 1 µM
[29] = second compound 3.16 µM, first compound 3.16 µM
[30] = second compound 3.16 µM, first compound 10 µM
[31] = second compound 10 µM, first compound 0.0316 µM
[32] = second compound 10 µM, first compound 0.1 µM
[33] = second compound 10 µM, first compound 0.316 µM
[34] = second compound 10 µM, first compound 1 µM
[35] = second compound 10 µM, first compound 3.16 µM
[36] = second compound 10 µM, first compound 10 µM
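Also: viability measured after seven days of drug exposure.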
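For viability, T/C in this document: luminescence signal used as surrogate for viable cell amount; 100% = DMSO vehicle control wells.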

CC(C)CC(NC(=O)C(Cc1ccccc1)NC(=O)c1cnccn1)B(O)O (stereo unspecified) + CN1CCN(c2cc(C(=O)Nc3cc4cc(-c5cnn(C)c5)ccc4cn3)ccn2)CC1
pIC50 (second compound 0.0316 µM): 8.69
pIC50 (second compound 0.1 µM): 8.90
pIC50 (second compound 0.316 µM): > 9.02
pIC50 (second compound 1 µM): > 9.02
pIC50 (second compound 3.16 µM): > 9.02
pIC50 (second compound 10 µM): > 9.02
viability, T/C (second compound 0.0316 µM, first compound 0.000949 µM): 110%
viability, T/C (second compound 0.0316 µM, first compound 0.003 µM): 18.9%
viability, T/C (second compound 0.0316 µM, first compound 0.00949 µM): 0.44%
viability, T/C (second compound 0.0316 µM, first compound 0.03 µM): 0.32%
viability, T/C (second compound 0.0316 µM, first compound 0.0949 µM): 0.25%
viability, T/C (second compound 0.0316 µM, first compound 0.3 µM): 1.03%
viability, T/C (second compound 0.1 µM, first compound 0.000949 µM): 59.4%
viability, T/C (second compound 0.1 µM, first compound 0.003 µM): 20.9%
viability, T/C (second compound 0.1 µM, first compound 0.00949 µM): 0.36%
viability, T/C (second compound 0.1 µM, first compound 0.03 µM): 0.27%
viability, T/C (second compound 0.1 µM, first compound 0.0949 µM): 0.22%
viability, T/C (second compound 0.1 µM, first compound 0.3 µM): 0.23%
viability, T/C (second compound 0.316 µM, first compound 0.000949 µM): 11.4%
viability, T/C (second compound 0.316 µM, first compound 0.003 µM): 11.6%
viability, T/C (second compound 0.316 µM, first compound 0.00949 µM): 0.29%
viability, T/C (second compound 0.316 µM, first compound 0.03 µM): 0.17%
viability, T/C (second compound 0.316 µM, first compound 0.0949 µM): 0.2%
viability, T/C (second compound 0.316 µM, first compound 0.3 µM): 0.16%
viability, T/C (second compound 1 µM, first compound 0.000949 µM): 0.26%
viability, T/C (second compound 1 µM, first compound 0.003 µM): 0.22%
viability, T/C (second compound 1 µM, first compound 0.00949 µM): 0.57%
viability, T/C (second compound 1 µM, first compound 0.03 µM): 0.12%
viability, T/C (second compound 1 µM, first compound 0.0949 µM): 0.15%
viability, T/C (second compound 1 µM, first compound 0.3 µM): 0.15%
viability, T/C (second compound 3.16 µM, first compound 0.000949 µM): 1.04%
viability, T/C (second compound 3.16 µM, first compound 0.003 µM): 0.22%
viability, T/C (second compound 3.16 µM, first compound 0.00949 µM): 0.34%
viability, T/C (second compound 3.16 µM, first compound 0.03 µM): 0.09%
viability, T/C (second compound 3.16 µM, first compound 0.0949 µM): 1.55%
viability, T/C (second compound 3.16 µM, first compound 0.3 µM): 0.25%
viability, T/C (second compound 10 µM, first compound 0.000949 µM): 0.63%
viability, T/C (second compound 10 µM, first compound 0.003 µM): 0.26%
viability, T/C (second compound 10 µM, first compound 0.00949 µM): 0.23%
viability, T/C (second compound 10 µM, first compound 0.03 µM): 0.18%
viability, T/C (second compound 10 µM, first compound 0.0949 µM): 1.16%
viability, T/C (second compound 10 µM, first compound 0.3 µM): 1.04%

CC1COCCN1c1cc(C2(S(C)(=N)=O)CC2)nc(-c2ccnc3[nH]ccc23)n1 (stereo unspecified) + CN1CCN(c2cc(C(=O)Nc3cc4cc(-c5cnn(C)c5)ccc4cn3)ccn2)CC1
pIC50 (second compound 0.0316 µM): 5.76
pIC50 (second compound 0.1 µM): 6.94
pIC50 (second compound 0.316 µM): > 7.50
pIC50 (second compound 1 µM): > 7.50
pIC50 (second compound 3.16 µM): > 7.50
pIC50 (second compound 10 µM): > 7.50
viability, T/C [1]: 47.2%
viability, T/C [2]: 74.3%
viability, T/C [3]: 67.3%
viability, T/C [4]: 89.2%
viability, T/C [5]: 29.4%
viability, T/C [6]: 26.9%
viability, T/C [7]: 61.5%
viability, T/C [8]: 53.8%
viability, T/C [9]: 22%
viability, T/C [10]: 30.5%
viability, T/C [11]: 15.8%
viability, T/C [12]: 15.1%
viability, T/C [13]: 10.6%
viability, T/C [14]: 9.28%
viability, T/C [15]: 9%
viability, T/C [16]: 7.71%
viability, T/C [17]: 7.38%
viability, T/C [18]: 4.64%
viability, T/C [19]: 0.24%
viability, T/C [20]: 0.3%
viability, T/C [21]: 0.2%
viability, T/C [22]: 0.19%
viability, T/C [23]: 0.18%
viability, T/C [24]: 0.82%
viability, T/C [25]: 0.19%
viability, T/C [26]: 1.51%
viability, T/C [27]: 1.3%
viability, T/C [28]: 0.18%
viability, T/C [29]: 0.26%
viability, T/C [30]: 1.69%
viability, T/C [31]: 0.23%
viability, T/C [32]: 0.28%
viability, T/C [33]: 1.49%
viability, T/C [34]: 0.34%
viability, T/C [35]: 0.56%
viability, T/C [36]: 1.29%

O=C(c1cc(Cc2n[nH]c(=O)c3ccccc23)ccc1F)N1CCN(C(=O)C2CC2)CC1 + CN1CCN(c2cc(C(=O)Nc3cc4cc(-c5cnn(C)c5)ccc4cn3)ccn2)CC1
pIC50 (second compound 0.0316 µM): < 5.00
pIC50 (second compound 0.1 µM): 6.37
pIC50 (second compound 0.316 µM): > 7.50
pIC50 (second compound 1 µM): > 7.50
pIC50 (second compound 3.16 µM): > 7.50
pIC50 (second compound 10 µM): > 7.50
viability, T/C [1]: 73.3%
viability, T/C [2]: 75.6%
viability, T/C [3]: 72.5%
viability, T/C [4]: 88.2%
viability, T/C [5]: 73.6%
viability, T/C [6]: 77.8%
viability, T/C [7]: 45.6%
viability, T/C [8]: 67.2%
viability, T/C [9]: 52.5%
viability, T/C [10]: 40.3%
viability, T/C [11]: 31.5%
viability, T/C [12]: 40.1%
viability, T/C [13]: 10.2%
viability, T/C [14]: 8.85%
viability, T/C [15]: 8.61%
viability, T/C [16]: 7.84%
viability, T/C [17]: 9.11%
viability, T/C [18]: 10.2%
viability, T/C [19]: 0.19%
viability, T/C [20]: 0.34%
viability, T/C [21]: 0.16%
viability, T/C [22]: 0.63%
viability, T/C [23]: 0.66%
viability, T/C [24]: 0.35%
viability, T/C [25]: 0.24%
viability, T/C [26]: 0.12%
viability, T/C [27]: 0.18%
viability, T/C [28]: 0.08%
viability, T/C [29]: 0.96%
viability, T/C [30]: 0.39%
viability, T/C [31]: 0.6%
viability, T/C [32]: 0.32%
viability, T/C [33]: 0.35%
viability, T/C [34]: 0.18%
viability, T/C [35]: 0.41%
viability, T/C [36]: 1.31%
